In US5229409A, “6-substituted-tetrahydrobenz[cd]indoles” (Eli Lilly and Company, priority 1991, dated 1993):

How the values were obtained:
serum corticosterone = serum corticosterone concentration in vivo in rats; set-up: species or system rat (male albino); conditions: 1 hour, series 0.03-3 mg/kg
Description: (§1) In another experiment certain compounds of the Examples were evaluated to determine ability to affect the 5-hydroxyindoles serotonin and 5-hydroxyindole acetic acid (5HIAA), and serum corticosterone, in vivo. Male albino rats were injected subcutaneously with an aqueous solution of the compound. The pH of the solution was adjusted as necessary to solubilize the compound. A control of the solution without the test compound was similarly injected into a control animal. The rats were decapitated one hour later. Trunk blood was collected and allowed to clot. After centrifugation, serum was stored frozen prior to analysis. The whole brain was removed and frozen on dry ice for storage prior to analysis. The serum corticosterone concentration was measured spectrofluorometrically using the procedure of Solem and Brinck-Johnson, "An Evaluation of a Method for Determination of Free Corticosteroids in Minute Quantities of Mouse Plasma", Scand. J. Clin. Lab. Invest., Suppl. 80, p. 1-14 (1965), incorporated herein by reference. 5-Hydroxyindoleacetic acid (5HIAA) concentration in whole brain was measured by liquid chromatography with electrochemical detection as reported by Fuller and Perry, "Effects of Buspirone and its Metabolite, 1-(2-pyrimidinyl)piperazine, on Brain Monoamines and Their Metabolites in Rats", J. Pharmacol. Exp. Ther., 248, p. 50-56 (1989), incorporated herein by reference.

5-HT1D receptor = molecular target: T1, 5-HT1D receptor (Bos taurus, UniProt F1MGM3); assay: [3H]5-HT binding to 5-HT1D sites in caudate nuclei membranes; conditions: bovine caudate membranes, [3H]5-HT 1.7-1.9 nM, pH 7.4, 37° C
T1 construct: the caudate nuclei were dissected out and frozen at -70° C; tissue Pel-Freeze Biologicals; host or cells: bovine caudate nuclei, washed membranes
Description: The affinities of the compounds at the central 5-HT1D binding sites were determined using a modification of the binding assay described by Heuring and Peroutka (J. Neurosci. 7:894-903, 1987). Bovine brains were obtained from Pel-Freeze Biologicals, and the caudate nuclei were dissected out and frozen at -70° C. until the time that the membranes were prepared for the binding assays. At that time the tissues were homogenized in 40 volumes of ice-cold Tris-HCl buffer (50 mM, pH 7.4 at 22° C.) with a Techmar Tissumizer (setting 65 for 15 sec), and the homogenate was centrifuged at 39,800 g for 10 min. The resulting pellet was then resuspended in the same buffer, and the centrifugation and resuspension process was repeated three additional times to wash the membranes. Between the second and third washes the resuspended membranes were incubated for 10 min at 37° C. to facilitate the removal of endogenous 5-HT. the final pellet was resuspended in Tris buffer to a concentration of 25 mg of original tissue wet weight/ml for use in the binding assay. […] The assay tubes were incubated for 10 min at 37° C., and the contents were then rapidly filtered through GF/B filters (pretreated with 0.5% polyethylenimine), followed by four one-mL washes with ice-cold buffer. The radioactivity trapped by the filters was quantitated by liquid scintillation spectrometry, and specific [^3 H]5-HT binding to the 5HT1D sites were defined as the difference between [^3 H]5-HT bound in the presence and absence of 10 μM 5-HT.
The affinities of compounds at the 5-HT1D receptor are expressed as IC50 values, i.e., the concentration required to inhibit 50% of the binding. These values were determined from 12-point competition curves using nonlinear regression (SYSTAT, SYSTAT, Inc. Evanston, Ill.).

[1] = system: 5-hydroxyindole acetic acid (5HIAA); assay: whole brain 5-hydroxyindoleacetic acid (5HIAA) concentration in vivo in rats; set-up: species or system rat (male albino); conditions: 1 hour, series 0.03-3 mg/kg
Description: as §1, with “The rats were decapitated one hour later.” left out

5-HT1A receptor = molecular target: T2, 5-HT1A receptor (Rattus norvegicus, UniProt P19327); assay: [3H]8-OH-DPAT binding to 5-HT1A sites in hippocampal membranes; set-up: species or system rat (male Sprague-Dawley); conditions: [3H]8-OH-DPAT 1.0 nM, pH 7.4, 37° C
T2 construct: the brains were rapidly chilled and dissected to obtain the hippocampi; from tissue; host or cells: hippocampi of male Sprague-Dawley rats (150-250 g), washed membranes
T2 sequence (P19327 1-422): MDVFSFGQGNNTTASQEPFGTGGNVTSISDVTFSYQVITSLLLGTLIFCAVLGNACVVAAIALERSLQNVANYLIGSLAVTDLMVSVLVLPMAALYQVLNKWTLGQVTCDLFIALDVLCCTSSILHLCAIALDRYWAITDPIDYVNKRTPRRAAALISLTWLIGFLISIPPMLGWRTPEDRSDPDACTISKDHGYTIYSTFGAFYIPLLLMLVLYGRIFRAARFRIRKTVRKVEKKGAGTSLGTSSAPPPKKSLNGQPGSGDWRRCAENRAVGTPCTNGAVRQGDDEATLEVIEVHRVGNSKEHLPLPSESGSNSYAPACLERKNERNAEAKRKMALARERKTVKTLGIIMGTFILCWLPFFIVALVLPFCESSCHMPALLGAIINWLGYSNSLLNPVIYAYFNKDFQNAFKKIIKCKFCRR
Description: The affinities of the compounds at the central […] described by Taylor, et al., (J. Pharmacol. Exp. Ther. 236:118-125, 1986). Membranes for the binding assay were prepared from male Sprague-Dawley rats (150-250 g). The animals were killed by decapitation, and the brains were rapidly chilled and dissected to obtain the hippocampi. The hippocampi were either prepared that day or stored frozen (-70° C.) until the day of preparation. Membranes were prepared by homogenizing the tissue in 40 volumes of ice-cold Tris-HCl buffer (50 mM, pH 7.4 at 22° C.) using a Techmar Tissumizer (setting 65 for 15 sec), and the homogenate was centrifuged at 39800 xg for 10 min. The resulting pellet then resuspended in the same buffer, and the centrifugation and resuspension process was repeated three additional times to wash the membranes. Between the second and third washes the resuspended membranes were incubated for 10 min at 37° C. to facilitate the removal of endogenous ligands. The final pellet was resuspended in 67 mM Tris-HCl, pH 7.4, to a concentration of 2 mg of tissue original wet weight/200 μl. This homogenate was stored frozen (-70° C.) until the day of the binding assay. […] The assay tubes were incubated for 10 min at 37° C, and the contents were then rapidly filtered through GF/B filters (pretreated with 0.5% polyethylenimine), followed by four one-mL washes with ice cold buffer. The radioactivity trapped by the filters was quantitated by liquid scintillation spectrometry, and specific [^3 H]8-OH-DPAT binding to the 5-HT1A sites was defined as the difference between [^3 H]8-OH-DPAT bound in the presence and absence of 10 μM 5-HT.
The affinity of the particular compound at the 5-HT1A receptor is expressed as IC50 value, i.e., the concentration required to inhibit 50% of the binding. The IC50 values were determined from 12-point competition curves using nonlinear regression (SYSTAT, SYSTAT, INC., Evanston, Ill.).

serotonin = assay: whole brain serotonin concentration in vivo in rats; set-up: species or system rat (male albino); conditions: 1 hour, series 0.03-3 mg/kg
Description: as §1

T1 sequence (F1MGM3 1-403): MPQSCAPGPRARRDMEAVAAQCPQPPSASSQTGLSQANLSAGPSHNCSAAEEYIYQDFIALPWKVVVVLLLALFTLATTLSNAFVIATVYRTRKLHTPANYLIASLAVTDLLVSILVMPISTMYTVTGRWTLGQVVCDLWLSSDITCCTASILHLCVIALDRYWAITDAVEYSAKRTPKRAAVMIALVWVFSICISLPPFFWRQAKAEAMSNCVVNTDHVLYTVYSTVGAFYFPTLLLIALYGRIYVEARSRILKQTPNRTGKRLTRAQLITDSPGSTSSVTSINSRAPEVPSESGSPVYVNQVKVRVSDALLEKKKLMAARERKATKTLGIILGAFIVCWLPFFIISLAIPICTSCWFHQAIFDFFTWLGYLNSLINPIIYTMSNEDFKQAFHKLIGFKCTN

Compound	Serum Corticosterone (serum corticosterone; 0.03 mg/kg s.c.)	Serum Corticosterone (serum corticosterone; 0.3 mg/kg s.c.)	Serum Corticosterone (serum corticosterone; 3 mg/kg s.c.)	IC50 (5-HT1D receptor)	5HIAA ([1]; 0.03 mg/kg s.c.)	5HIAA ([1]; 0.3 mg/kg s.c.)	5HIAA ([1]; 3 mg/kg s.c.)	IC50 (5-HT1A receptor)	Serotonin (serotonin; 0.03 mg/kg s.c.)	Serotonin (serotonin; 0.3 mg/kg s.c.)	Serotonin (serotonin; 3 mg/kg s.c.)
CCCN(CCC)C1Cc2c[nH]c3ccc(C(=O)C(C)(C)C)c(c23)C1 (racemic) [Example 1, (±)-6-(2,2-Dimethylpropanoyl)-4-(di-n-propylamino)-1,3,4,5-tetrahydrobenz[cd]indole]	8.2 ± 3.2 microg./100 ml	36.0 ± 4.8 microg./100 ml	44.2 ± 1.5 microg./100 ml	2.01 nM	1.58 ± 0.05 nmol/g	1.31 ± 0.03 nmol/g	1.23 ± 0.04 nmol/g	0.5 nM	3.15 ± 0.13 nmol/g	3.45 ± 0.10 nmol/g	3.38 ± 0.08 nmol/g
CCCN(CCC)[C@H]1Cc2c[nH]c3ccc(C(=O)c4ccccc4)c(c23)C1 [Example 10, (4R)-(+)-6-benzoyl-4-(di-n-propylamino)-1,3,4,5-tetrahydrobenz[cd]indole]	–	–	–	1.81 nM	–	–	–	0.22 nM	–	–	–
